Source: patent US20120046276A1, “Tuberculosis treatment using pleuromutilin derivatives” (priority 2002, published 2012)
In brackets after ≈: the same amount, converted by molar mass. Several values for one entry are separate records, joined by “and”; a condition that tells them apart may be missing. Identical values can stand only once. Like-named read-outs stand apart in the source and are kept apart here.

Legend:
Format in all cases: cell-based
[1] = test system: Mycobacterium tuberculosis strain 1; assay: Agar Dilution Test (MIC), strain 1 (Isoniacid S, Rifampicin S, Streptomycin S); conditions: read-out: MIC against Mycobacterium tuberculosis of strain number 1
[2] = test system: Mycobacterium tuberculosis strain 12; assay: Agar Dilution Test (MIC), strain 12 (Isoniacid S, Rifampicin S, Streptomycin S)
[3] = test system: Mycobacterium tuberculosis strain 15 (labor strain 137 kV); assay: Agar Dilution Test (MIC), strain 15 = labor strain 137 kV (Isoniacid S, Rifampicin S, Streptomycin S)
[4] = test system: Mycobacterium tuberculosis strain 2; assay: Agar Dilution Test (MIC), strain 2 (Isoniacid S, Rifampicin S, Streptomycin S)
[5] = test system: Mycobacterium tuberculosis strain 3; assay: Agar Dilution Test (MIC), strain 3 (Isoniacid R, Rifampicin R, Streptomycin S)
[6] = test system: Mycobacterium tuberculosis strain 6; assay: Agar Dilution Test (MIC), strain 6 (Isoniacid S, Rifampicin S, Streptomycin S)
[7] = test system: Mycobacterium tuberculosis strain 7; assay: Agar Dilution Test (MIC), strain 7 (Isoniacid R, Rifampicin S, Streptomycin R)
[8] = test system: Mycobacterium tuberculosis strain 4; assay: Agar Dilution Test (MIC), strain 4 (Isoniacid R, Rifampicin R, Streptomycin R)
[9] = test system: Mycobacterium tuberculosis strain 5; assay: Agar Dilution Test (MIC), strain 5 (Isoniacid R, Rifampicin R, Streptomycin S)
[10] = test system: Mycobacterium tuberculosis strain 8; assay: Agar Dilution Test (MIC), strain 8 (Isoniacid S, Rifampicin R, Streptomycin S)
[11] = test system: Mycobacterium tuberculosis strain 10; assay: Agar Dilution Test (MIC), strain 10 (Isoniacid S, Rifampicin S, Streptomycin S)
[12] = test system: Mycobacterium tuberculosis strain 11; assay: Agar Dilution Test (MIC), strain 11 (Isoniacid S, Rifampicin S, Streptomycin S)
[13] = test system: Mycobacterium tuberculosis strain 13; assay: Agar Dilution Test (MIC), strain 13 (Isoniacid S, Rifampicin S, Streptomycin S)
[14] = test system: Mycobacterium tuberculosis strain 14; assay: Agar Dilution Test (MIC), strain 14 (Isoniacid S, Rifampicin S, Streptomycin S)
[15] = Mycobacterium tuberculosis, 1, 168 h
[16] = Mycobacterium tuberculosis, 1, 504 h
[17] = Mycobacterium tuberculosis, 1, 672 h
[18] = Mycobacterium tuberculosis, 1, 840 h
[19] = TABLE C; week 4*) tested after 31 days
[20] = TABLE D; week 4*) tested after 31 days
[21] = Mycobacterium tuberculosis, 1, 336 h

| SMILES | MIC [1, 15] [µg/mL] | MIC against Mycobacterium tuberculosis of strain number 12 [2] | MIC against Mycobacterium tuberculosis of strain number 15 [3] | MIC [1, 16] [µg/mL] | MIC [1, 17] [µg/mL] | MIC [1, 18] [µg/mL] | MIC against Mycobacterium tuberculosis of strain number 2 [4] | MIC against Mycobacterium tuberculosis of strain number 3 [5] [µg/mL] | MIC against Mycobacterium tuberculosis of strain number 6 [6] | MIC against Mycobacterium tuberculosis of strain number 7 [7] | MIC against Mycobacterium tuberculosis of strain number 4 [8] | also measured |
| --- | --- | --- | --- | --- | --- | --- | --- | --- | --- | --- | --- | --- |
| C=C[C@]1(C)C[C@@H](OC(=O)CSC(C)(C)C(N)C(=O)NC)[C@]2(C)C(C)CCC3(CCC(=O)C32)[C@@H](C)C1O (stereo partly drawn) [TC-7] | 2 (≈ 3.83 µM) | 32 µg/mL | 32 µg/mL | – | – | – | – | – | – | – | – | – |
| C=C[C@]1(C)C[C@@H](OC(=O)CSC(C)(C)C(N)C(=O)N2CCN(C)CC2)[C@]2(C)C(C)CCC3(CCC(=O)C32)[C@@H](C)C1O (stereo partly drawn) [TC-8] | 2 (≈ 3.38 µM) | 32 µg/mL | 32 µg/mL | – | – | – | – | – | – | – | – | – |
| C=C[C@]1(C)C[C@@H](OC(=O)CSc2cccc(NC(=O)C3CCCCN3)c2)[C@]2(C)C(C)CCC3(CCC(=O)C32)[C@@H](C)C1O (stereo partly drawn) [TC-3] | – | – | – | 1 (≈ 1.68 µM) | 1 (≈ 1.68 µM) | 1 (≈ 1.68 µM) | 5 µg/mL | 5 | 5 µg/mL and 10 µg/mL | 20 µg/mL | – | – |
| C=C[C@]1(C)C[C@@H](OC(=O)CSc2cccc(NC(=O)C(N)CCCNC(=N)N)c2)[C@]2(C)C(C)CCC3(CCC(=O)C32)[C@@H](C)C1O (stereo partly drawn) [TC-5] | – | – | – | 1 (≈ 1.56 µM) | 5 (≈ 7.79 µM) | 5 (≈ 7.79 µM) | 5 µg/mL | 5 | 5 µg/mL and 10 µg/mL | 5 µg/mL and 10 µg/mL | 5 µg/mL and 10 µg/mL | – |
| C=C[C@]1(C)C[C@@H](OC(=O)CSC(C)(C)CNC(=O)[C@H](N)C(C)C)[C@]2(C)[C@H](C)CC[C@]3(CCC(=O)[C@H]32)[C@@H](C)[C@@H]1O [TC-2, Valnemulin] | – | 4 µg/mL | 2 µg/mL | 0.5 (≈ 0.885 µM) | 0.5 (≈ 0.885 µM) | 0.5 (≈ 0.885 µM) | – | – | 5 µg/mL and 4 µg/mL | – | 5 µg/mL and 8 µg/mL | MIC ([1]; Mycobacterium tuberculosis, 1, 744 h, TABLE C; week 4*) tested after 31 days): 0.5 µg/mL (≈ 0.885 µM); MIC against Mycobacterium tuberculosis of strain number 2 [4, 19]: 4 µg/mL; MIC against Mycobacterium tuberculosis of strain number 3 [5, 19]: 2 µg/mL; MIC against Mycobacterium tuberculosis of strain number 4 [8, 19]: 8 µg/mL; MIC against Mycobacterium tuberculosis of strain number 5 [9]: 2 µg/mL; MIC against Mycobacterium tuberculosis of strain number 5 [9, 19]: 4 µg/mL; MIC against Mycobacterium tuberculosis of strain number 6 [6, 19]: 4 µg/mL; MIC against Mycobacterium tuberculosis of strain number 7 [7, 19]: 8 µg/mL; MIC against Mycobacterium tuberculosis of strain number 8 [10]: 4 µg/mL; MIC against Mycobacterium tuberculosis of strain number 8 [10, 19]: 8 µg/mL; MIC against Mycobacterium tuberculosis of strain number 10 [11]: 4 µg/mL; MIC against Mycobacterium tuberculosis of strain number 10 [11, 20]: 4 µg/mL; MIC against Mycobacterium tuberculosis of strain number 11 [12]: 2 µg/mL; MIC against Mycobacterium tuberculosis of strain number 11 [12, 20]: 4 µg/mL; MIC against Mycobacterium tuberculosis of strain number 12 [2, 20]: 4 µg/mL; MIC against Mycobacterium tuberculosis of strain number 13 [13]: 4 µg/mL; MIC against Mycobacterium tuberculosis of strain number 13 [13, 20]: 8 µg/mL; MIC against Mycobacterium tuberculosis of strain number 14 [14]: 4 µg/mL; MIC against Mycobacterium tuberculosis of strain number 14 [14, 20]: 4 µg/mL; MIC against Mycobacterium tuberculosis of strain number 15 [3, 20]: 4 µg/mL |
| C=C[C@]1(C)C[C@@H](OC(=O)CSCCN(CC)CC)[C@]2(C)C(C)CC[C@]3(CCC(=O)C32)[C@@H](C)[C@@H]1O (stereo partly drawn) [TC-1, 14-Desoxy-14[(2-diethylaminoethyl)mercaptoacetoxy]mutilin] | – | – | – | 5 (≈ 10.1 µM) | 5 (≈ 10.1 µM) | 5 (≈ 10.1 µM) | 5 µg/mL | 5 | 10 µg/mL | 10 µg/mL and 20 µg/mL | 5 µg/mL and 10 µg/mL | – |
| C=C[C@]1(C)C[C@@H](OC(=O)CSC2CCNCC2O)[C@]2(C)C(C)CCC3(CCC(=O)C32)[C@@H](C)C1O (stereo partly drawn) [TC-10] | – | 16 µg/mL | 4 µg/mL | – | – | – | – | – | – | – | – | MIC [1, 21]: 2 µg/mL (≈ 4.05 µM) |
| C=C[C@]1(C)C[C@@H](OC(=O)CSC2CCCN(C(=O)C(N)C(C)C)C2)[C@]2(C)C(C)CCC3(CCC(=O)C32)[C@@H](C)C1O (stereo partly drawn) [TC-4] | – | 4 µg/mL and 2 µg/mL | 4 µg/mL and 2 µg/mL | 0.5 (≈ 0.867 µM) | 1 (≈ 1.73 µM) | 1 (≈ 1.73 µM) | 5 µg/mL and 4 µg/mL | – | 5 µg/mL and 4 µg/mL | – | – | MIC against Mycobacterium tuberculosis of strain number 5 [9]: 2 µg/mL; MIC against Mycobacterium tuberculosis of strain number 8 [10]: 4 µg/mL and 2 µg/mL; MIC against Mycobacterium tuberculosis of strain number 10 [11]: 4 µg/mL and 2 µg/mL; MIC against Mycobacterium tuberculosis of strain number 11 [12]: 2 µg/mL; MIC against Mycobacterium tuberculosis of strain number 13 [13]: 4 µg/mL and 2 µg/mL; MIC against Mycobacterium tuberculosis of strain number 14 [14]: 4 µg/mL |
| C=C[C@]1(C)C[C@@H](OC(=O)CSC2CCCC(=NO)C2)[C@]2(C)C(C)CCC3(CCC(=O)C32)[C@@H](C)C1O (stereo partly drawn) [TC-9] | 8 (≈ 15.8 µM) | 32 µg/mL | 32 µg/mL | – | – | – | – | – | – | – | – | – |
| C=C[C@]1(C)C[C@@H](OC(=O)CSc2cccc(NC(=N)N)c2)[C@]2(C)C(C)CCC3(CCC(=O)C32)[C@@H](C)C1O (stereo partly drawn) [TC-6] | – | 1 µg/mL | 0.5 µg/mL | – | – | – | – | – | – | – | – | MIC [1, 21]: 1 µg/mL (≈ 1.89 µM) |
